Results on five compounds are retold here after patent US4199570A, “1-N-Hetero containing aminoglycoside derivatives” (Shionogi & Co., Ltd., priority 1977, dated 1980).

For data set [1], the system named is Enterobacter cloacae CI-38. The data set can be described thus: MIC (Table 2). The conditions noted are these: CI38, read-out: Minimum Inhibitory Concentration (MIC).
Data set [2] has as its system Citrobactor freundii Ct-31. The data set can be described thus: MIC (Table 2). To be noted: read-out: Minimum Inhibitory Concentration (MIC).
In data set [3] the test system is Klebsiella pneumoniae Kl 38. The data set can be described thus: MIC (Table 2). To be noted: KL38, read-out: Minimum Inhibitory Concentration (MIC).
Data set [4] has as its system Streptococcus pyogenes ATCC 10389. Description: MIC (Table 2). The conditions noted are these: ATCC10389, read-out: Minimum Inhibitory Concentration (MIC).
Data set [5] has as its system Escherichia coli W-677/JR 66. Description: MIC (Table 2). To be noted: W677/JR66, read-out: Minimum Inhibitory Concentration (MIC).
For data set [6], the system named is Escherichia coli TB-705. The data set can be described thus: MIC (Table 2). It is filed as cell-based. The conditions noted are these: TB705, read-out: Minimum Inhibitory Concentration (MIC).
Data set [7] relates to Staphylococcus aureus 80285. The data set can be described thus: MIC (Table 2). The conditions noted are these: Staphylococcus aureus, 80285, read-out: Minimum Inhibitory Concentration (MIC).
In data set [8] the test system is Sarcina lutea PCI 1001. The data set can be described thus: MIC (Table 2). The data set is classed as cell-based. To be noted: Micrococcus luteus, PCI1001, read-out: Minimum Inhibitory Concentration (MIC).
For data set [9], the system named is Proteus mirabilis Pm-5. The data set can be described thus: MIC (Table 2). The conditions noted are these: PM5, read-out: Minimum Inhibitory Concentration (MIC).
The subject of data set [10] is Escherichia coli W-677/JR 762. The data set can be described thus: MIC (Table 2). To be noted: W677/JR762, read-out: Minimum Inhibitory Concentration (MIC).
Data set [11] has as its system Escherichia coli W-677/JR 214. Description: MIC (Table 2). The conditions noted are these: W677/JR214, read-out: Minimum Inhibitory Concentration (MIC).
Data set [12] has as its system Proteus inconstans In-27. The data set can be described thus: MIC (Table 2). The data set is classed as cell-based. To be noted: Providencia alcalifaciens, IN27, tobramycin resistant strain, read-out: Minimum Inhibitory Concentration (MIC).
Data set [13] relates to Pseudomonas aeruginosa PP-6. The data set can be described thus: MIC (Table 2). The conditions noted are these: PP6, read-out: Minimum Inhibitory Concentration (MIC).
In data set [14] the test system is Serratia marcescens MA-26. Description: MIC (Table 2). To be noted: MA26, read-out: Minimum Inhibitory Concentration (MIC).
Data set [15] concerns Pseudomonas aeruginosa PP-6. The data set can be described thus: MIC (Table 3). It is filed as cell-based. The conditions noted are these: PP6, read-out: Minimum Inhibitory Concentration (MIC).
Data set [16] concerns Escherichia coli W-677/JR-762. Description: MIC (Table 3). To be noted: W677/JR762, read-out: Minimum Inhibitory Concentration (MIC).
The subject of data set [17] is Streptococcus pyogenes C-203. Description: MIC (Table 3). The conditions noted are these: C203, read-out: Minimum Inhibitory Concentration (MIC).
Data set [18] has as its system Proteus mirabilis TB-617. The data set can be described thus: MIC (Table 3). The data set is classed as cell-based. To be noted: TB617, read-out: Minimum Inhibitory Concentration (MIC).
Data set [19] concerns kanamycin A resistant strains. The conditions noted are these: cited from earlier work.
For data set [20] the following is noted: compared with kanamycin A; cited from earlier work.

SMILES strings stand for the structures. Values after ≈ are worked out from the molar mass of the structure shown.

For `NC[C@H]1O[C@H](O[C@H]2[C@H](O)[C@@H](O[C@H]3O[C@H](CO)[C@@H](O)[C@H](N)[C@H]3O)[C@H](NC(=O)C3(O)CNC3)C[C@@H]2N)[C@H](N)C[C@@H]1O` [Comp. (1), 1-N-(3-hydroxyazetidine-3-carbonyl)tobramycin], the MIC in data set [1] came out at 0.78 µg/mL (≈ 1.38 µM); in data set [2] it was 1.56 µg/mL (≈ 2.75 µM); in data set [3] it was 0.78 µg/mL (≈ 1.38 µM); in [4], 25 µg/mL (≈ 44.1 µM); in data set [5], 3.13 µg/mL (≈ 5.52 µM); in data set [6], 3.13 µg/mL (≈ 5.52 µM). In addition, the MIC is 0.78 µg/mL (≈ 1.38 µM) in data set [7]; 3.13 µg/mL (≈ 5.52 µM) in data set [8]; 1.56 µg/mL (≈ 2.75 µM) in [9]; 3.13 µg/mL (≈ 5.52 µM) in data set [10]; 3.13 µg/mL (≈ 5.52 µM) in [11]; 12.5 µg/mL (≈ 22.1 µM) in [12]. Also, the MIC in data set [13] was determined as 3.13 µg/mL (≈ 5.52 µM); in data set [14], 6.25 µg/mL (≈ 11 µM).

Consider `NC[C@H]1O[C@H](O[C@H]2[C@H](O)[C@@H](O[C@H]3O[C@H](CO)[C@@H](O)[C@H](N)[C@H]3O)[C@H](NC(=O)C3(O)CNC3)C[C@@H]2N)[C@H](O)[C@@H](O)[C@@H]1O` [Comp. (2), 1-N-(3-hydroxyazetidine-3-carbonyl)kanamycin A], for which the MIC in data set [1] amounted to 3.13 µg/mL (≈ 5.36 µM); in [2], 3.13 µg/mL (≈ 5.36 µM); in data set [3] it was 1.56 µg/mL (≈ 2.67 µM); in data set [4] it was 50 µg/mL (≈ 85.7 µM); in data set [5], 6.25 µg/mL (≈ 10.7 µM); in [6], 12.5 µg/mL (≈ 21.4 µM). Further, the MIC in [7] is 12.5 µg/mL (≈ 21.4 µM); in [8] it was 12.5 µg/mL (≈ 21.4 µM); in data set [9] it was 6.25 µg/mL (≈ 10.7 µM); in data set [10], 12.5 µg/mL (≈ 21.4 µM); in data set [11] it was 3.13 µg/mL (≈ 5.36 µM); in data set [12], 6.25 µg/mL (≈ 10.7 µM). In addition, the MIC in [13] turned out to be 6.25 µg/mL (≈ 10.7 µM); in [14] it was 12.5 µg/mL (≈ 21.4 µM).

In the case of `NC[C@H]1O[C@H](O[C@H]2[C@H](O)[C@@H](O[C@H]3O[C@H](CO)[C@@H](O)[C@H](N)[C@H]3O)[C@H](N)C[C@@H]2N)[C@H](O)[C@@H](O)[C@@H]1O` [KM-A, kanamycin A], the MIC is more than 100 µg/mL in data set [1]; more than 100 µg/mL in data set [2]; more than 100 µg/mL in data set [3]; 100 µg/mL (≈ 206 µM) in data set [4]; more than 100 µg/mL in data set [5]; more than 100 µg/mL in data set [6]. Besides, the MIC was more than 100 µg/mL in data set [7]; 12.5 µg/mL (≈ 25.8 µM) in data set [8]; more than 100 µg/mL in [9]; more than 100 µg/mL in data set [10]; more than 100 µg/mL in data set [11]; more than 100 µg/mL in data set [12]. Moreover, the MIC in data set [13] and in [14] was more than 100 µg/mL in each case.

As for `NC[C@H]1O[C@H](O[C@H]2[C@H](O)[C@@H](O[C@H]3O[C@H](CO)[C@@H](O)[C@H](N)[C@H]3O)[C@H](N)C[C@@H]2N)[C@H](N)C[C@@H]1O` [TOB, tobramycin], the MIC in data set [15] came out at 100 µg/mL (≈ 214 µM); in data set [1], 0.78 µg/mL (≈ 1.67 µM); in data set [2], 3.13 µg/mL (≈ 6.69 µM); in data set [3] it was 1.56 µg/mL (≈ 3.34 µM); in [4], 25 µg/mL (≈ 53.5 µM); in data set [16] it was 25 µg/mL (≈ 53.5 µM). Also, the MIC worked out at 6.2 µg/mL (≈ 13.3 µM) in data set [17]; 25 µg/mL (≈ 53.5 µM) in data set [5]; 6.25 µg/mL (≈ 13.4 µM) in [6]; 0.78 µg/mL (≈ 1.67 µM) in data set [7]; 12.5 µg/mL (≈ 26.7 µM) in [8]; 12.5 µg/mL (≈ 26.7 µM) in data set [9]. For the same compound, the MIC in data set [10] is 100 µg/mL (≈ 214 µM); in [11], 100 µg/mL (≈ 214 µM); in [12], 12.5 µg/mL (≈ 26.7 µM); in data set [13] it was more than 100 µg/mL; in [18] it was 6.2 µg/mL (≈ 13.3 µM); in [14], 50 µg/mL (≈ 107 µM).

Take `NCC[C@H](O)C(=O)N[C@@H]1C[C@H](N)[C@@H](O[C@H]2O[C@H](CN)[C@@H](O)[C@H](O)[C@H]2O)[C@H](O)[C@H]1O[C@H]1O[C@H](CO)[C@@H](O)[C@H](N)[C@H]1O` [amikacin]: in data set [19], the “effect against kanamycin A resistant strains” value is listed as “effective against kanamycin A resistant strains”. For the same compound, the toxicity entry in data set [20] is “approximately the same as kanamycin A”.
